Reference: the supplement of paper PMC11208160

Test: recombinant UMI read abundance after kanamycin selection (control-corrected) (log10(CPM+1)); higher = more efficient recombination; extreme values may be limits of the assay; sequences stand for … in AGTGCAGAGAAAATCGGCCAGTTTTCTCTGCCTGCAGTCCGCATGCCGTGGGACCCCTTGGGTTCTAACCTGTTGCCTAGATTTATGCAGCGGACTGCCTTTCTCCCAAAGTGATAAACCGG…AGGTTGGTTTCACT; site = the 11-nt donor
Outline: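 Two replicates each of selected and unselected plating were used in this pooled Escherichia coli screen of donor and donor-binding-loop pairs for the IS621 bridge recombinase. Selection was with IPTG (0.07 mM) and kanamycin. Counts of recombinant UMIs, amplified across the donor–target junction, were converted to CPM, averaged, scaled by control-derived factors and reported as log10(CPM+1).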
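Also: IS621 bridge recombinase in Escherichia coli cells against a fixed T5 target plasmid.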

Row | Sequence | recombinant UMI read abundance (log10)
1 | GTAGTAGCATGGACCGGTTTTCCCGGTAATCCGTATTTGCG (site GTAGTGGCTCG) | 1.53
2 | TCATCAGCATGGACCGGTTTTCCCGGTAATCCGTATTTGAT (site TCATCAGCTAT) | 0.316
3 | GAAGATTCATGGACCGGTTTTCCCGGTAATCCGTATTTGTT (site GAAGAGTCTAA) | 0.0122
4 | CGATGATCATGGACCGGTTTTCCCGGTAATCCGTATTTGCC (site CGATCATCTAG) | 0
5 | ACATGTACATGGACCGGTTTTCCCGGTAATCCGTATTTGTG (site ACATATACTCA) | 0.616
6 | ACGTCGACATGGACCGGTTTTCCCGGTAATCCGTATTTGTT (site ACGTCGACTAA) | 0.654
7 | CCCGTATCATGGACCGGTTTTCCCGGTAATCCGTATTTGTC (site CCCATATCTGA) | 0.605
8 | AAAAAGGCATGGACCGGTTTTCCCGGTAATCCGTATTTGCT (site AAAAAGGCTAG) | 1.88
9 | CACAGTGCATGGACCGGTTTTCCCGGTAATCCGTATTTGAT (site CACAGTGCTAT) | 2.52
10 | ATCCCGGCATGGACCGGTTTTCCCGGTAATCCGTATTTGAG (site CGAAGCCCTAG) | 0
11 | CGTTTTGCATGGACCGGTTTTCCCGGTAATCCGTATTTGCT (site CGTTTCGCTAG) | 0
12 | CTAGACCCATGGACCGGTTTTCCCGGTAATCCGTATTTGGA (site CTAGACCCTTC) | 0.351
13 | TCCACCGCATGGACCGGTTTTCCCGGTAATCCGTATTTGTG (site TCCACCGCTCA) | 0.0465
14 | TCCACCGCATGGACCGGTTTTCCCGGTAATCCGTATTTGCA (site TCCACCGCTTG) | 0.167
15 | ATTTCTACATGGACCGGTTTTCCCGGTAATCCGTATTTGTC (site ATTTCTACTGA) | 0.00552
16 | CCGTTTACATGGACCGGTTTTCCCGGTAATCCGTATTTGCT (site CCGTTTTCTAG) | 0
17 | GGGGAACCATGGACCGGTTTTCCCGGTAATCCGTATTTGCA (site GGGGTACCTTG) | 0
18 | CCGTTTACATGGACCGGTTTTCCCGGTAATCCGTATTTGCT (site CGGTTTACTAG) | 0
19 | CCCGGTGCATGGACCGGTTTTCCCGGTAATCCGTATTTGAT (site CCGGGTGCTAT) | 0.0111
20 | CCGTGTACATGGACCGGTTTTCCCGGTAATCCGTATTTGCT (site CCGTCTACTAG) | 0.00869
21 | TCAGAGTCATGGACCGGTTTTCCCGGTAATCCGTATTTGCG (site TCAGAGGCTCG) | 0.0319
22 | AATGTGACATGGACCGGTTTTCCCGGTAATCCGTATTTGCT (site AATGTTACTAG) | 0.751
23 | AGCCTTTCATGGACCGGTTTTCCCGGTAATCCGTATTTGAC (site AGCCTTTCTCT) | 0.00414
24 | GTTTAAGCATGGACCGGTTTTCCCGGTAATCCGTATTTGAC (site GTTTAAGCTGT) | 2.24
25 | GTCCCCGCATGGACCGGTTTTCCCGGTAATCCGTATTTGTA (site GTCCCCGCTTA) | 1.13

Row | Sequence | recombinant UMI read abundance (log10)
26 | GTGTATGCATGGACCGGTTTTCCCGGTAATCCGTATTTGGT (site GTGTATGCTAC) | 2
27 | GCGCTCACATGGACCGGTTTTCCCGGTAATCCGTATTTGAT (site GAGCTCACTAT) | 0.12
28 | GTCCCTACATGGACCGGTTTTCCCGGTAATCCGTATTTGAG (site CTCCCTACTCT) | 0.0129
29 | ACAGTATCATGGACCGGTTTTCCCGGTAATCCGTATTTGCA (site ATAGCATCTTG) | 1.83
30 | CGTGTAACATGGACCGGTTTTCCCGGTAATCCGTATTTGTT (site CGTGCAACTAA) | 0.015
31 | AGGACACCATGGACCGGTTTTCCCGGTAATCCGTATTTGTA (site AGGACACCTTA) | 0.189
32 | GACTTGACATGGACCGGTTTTCCCGGTAATCCGTATTTGCT (site GACTTGACTAG) | 0.984
33 | GTTCGAGCATGGACCGGTTTTCCCGGTAATCCGTATTTGCA (site GTTCGAGCTCG) | 0.461
34 | GTGCCTGCATGGACCGGTTTTCCCGGTAATCCGTATTTGGT (site GTGCCTGCTAC) | 0.328
35 | GAAGATTCATGGACCGGTTTTCCCGGTAATCCGTATTTGTT (site TAAGATTCTAA) | 2.36
36 | ACAGTATCATGGACCGGTTTTCCCGGTAATCCGTATTTGCA (site AGATTATCTTG) | 1.58
37 | AGGTTCCCATGGACCGGTTTTCCCGGTAATCCGTATTTGTC (site AGGTTCCCTCA) | 0.0034
38 | TGTACATCATGGACCGGTTTTCCCGGTAATCCGTATTTGAC (site TGTACAACTGT) | 0
39 | AGCCTTTCATGGACCGGTTTTCCCGGTAATCCGTATTTGAA (site AGCCTTTCTTT) | 0
40 | CCCGCGTCATGGACCGGTTTTCCCGGTAATCCGTATTTGTC (site CCCGCGTCTGA) | 0.515
41 | AGGGGTCCATGGACCGGTTTTCCCGGTAATCCGTATTTGTA (site AGGGGTCCTTA) | 0.489
42 | GGGAATCCATGGACCGGTTTTCCCGGTAATCCGTATTTGAA (site GGGAATCCTTT) | 0.808
43 | ACGTACACATGGACCGGTTTTCCCGGTAATCCGTATTTGCA (site ACGTACACTTG) | 2.71
44 | CCAGTATCATGGACCGGTTTTCCCGGTAATCCGTATTTGCC (site ACAGTATCTTG) | 0.0067
45 | TTGTTTGCATGGACCGGTTTTCCCGGTAATCCGTATTTGAG (site TTGTTTGCTCT) | 0.442
46 | ACTAGGACATGGACCGGTTTTCCCGGTAATCCGTATTTGCT (site ACTAGGACTAG) | 2.36
47 | CAATCTCCATGGACCGGTTTTCCCGGTAATCCGTATTTGCC (site CAATCTCCTGG) | 0
48 | GCTTGCCCATGGACCGGTTTTCCCGGTAATCCGTATTTGAT (site GCTTGCACTAT) | 0.00776
49 | TACTTGACATGGACCGGTTTTCCCGGTAATCCGTATTTGCG (site TACTTGACTGG) | 0
50 | AGGACTACATGGACCGGTTTTCCCGGTAATCCGTATTTGAC (site AGGATTACTGT) | 0.471

Row | Sequence | recombinant UMI read abundance (log10)
51 | ACAAATCCATGGACCGGTTTTCCCGGTAATCCGTATTTGAC (site ACAAATCCTGT) | 0.255
52 | GCCACGGCATGGACCGGTTTTCCCGGTAATCCGTATTTGTA (site GCCACGTCTTA) | 0.163
53 | AGGTTCCCATGGACCGGTTTTCCCGGTAATCCGTATTTGTG (site AGGTTACCTCA) | 0.00985
54 | GCTTGCCCATGGACCGGTTTTCCCGGTAATCCGTATTTGAT (site GCTCGCCCTAT) | 0.249
55 | ACAGTATCATGGACCGGTTTTCCCGGTAATCCGTATTTGCA (site GCCGTATCTTG) | 1.88
56 | AGCCTTTCATGGACCGGTTTTCCCGGTAATCCGTATTTGAC (site AACCTTTCTGT) | 0
57 | CGGAGATCATGGACCGGTTTTCCCGGTAATCCGTATTTGCT (site CGGATATCTAG) | 0
58 | GAGCTCCCATGGACCGGTTTTCCCGGTAATCCGTATTTGAT (site GAGCTCGCTAT) | 0
59 | CCCATATCATGGACCGGTTTTCCCGGTAATCCGTATTTGTC (site CTCATATCTGA) | 0
60 | AGGACTCCATGGACCGGTTTTCCCGGTAATCCGTATTTGAC (site AGGACTACTGT) | 0
61 | CATGTCACATGGACCGGTTTTCCCGGTAATCCGTATTTGGG (site CATGTCACTCC) | 0.00831
62 | CACTGCCCATGGACCGGTTTTCCCGGTAATCCGTATTTGTT (site CACCGCCCTAA) | 0.287
63 | CTCGACACATGGACCGGTTTTCCCGGTAATCCGTATTTGGC (site CTCGACACTGC) | 1.04
64 | CTTGAGACATGGACCGGTTTTCCCGGTAATCCGTATTTGGT (site CTTGAGACTAC) | 1.03
65 | TGCTACGCATGGACCGGTTTTCCCGGTAATCCGTATTTGGT (site TGCTATGCTAC) | 0.00567
66 | CCCATATCATGGACCGGTTTTCCCGGTAATCCGTATTTGTC (site CCCATATCTTA) | 0
67 | CCTTAGACATGGACCGGTTTTCCCGGTAATCCGTATTTGAG (site CTTTAGACTCT) | 0.0107
68 | ACACATTCATGGACCGGTTTTCCCGGTAATCCGTATTTGAC (site ACACATCCTGT) | 0.331
69 | CCACCCTCATGGACCGGTTTTCCCGGTAATCCGTATTTGCT (site CCACCCTCTAG) | 1.95
70 | CCCTAGCCATGGACCGGTTTTCCCGGTAATCCGTATTTGCC (site CCCTAACCTGG) | 0
71 | TAGATAGCATGGACCGGTTTTCCCGGTAATCCGTATTTGAA (site TAGATAGCTTT) | 2.07
72 | GGCAATCCATGGACCGGTTTTCCCGGTAATCCGTATTTGAA (site AGCAATCCTTT) | 0.00634
73 | AATCTGTCATGGACCGGTTTTCCCGGTAATCCGTATTTGAC (site AATATGTCTGT) | 0
74 | CCCCATACATGGACCGGTTTTCCCGGTAATCCGTATTTGTA (site CCCCAAACTTA) | 0
75 | GTTCGAGCATGGACCGGTTTTCCCGGTAATCCGTATTTGCA (site GTTCGATCTTG) | 1.09
